Common to all, as to format: biochemical
The target in test [1] is CDK1/CCNB1 (Homo sapiens, UniProt P06493). Put plainly: CDK1 homogeneous time-resolved fluorescence (HTRF) kinase assay. Conditions: >250 nM; CDK1/CCNB; read-out: CDK1/CCNB IC50 >250 nM. In outline: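 Read-out: TR-FRET (Eu anti-phospho-4E-BP1 Thr37/46 antibody, 2 nM; 665 nm or 665/615 ratio) after 60 min phosphorylation of 50 nM ULight-peptide by 0.5 nM CDK1/CCNB1 at 1 mM ATP, 23 °C. Compound preincubated 20 min with enzyme; 1% DMSO.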
Sequence of CDK1/CCNB1 (P06493 whole entry): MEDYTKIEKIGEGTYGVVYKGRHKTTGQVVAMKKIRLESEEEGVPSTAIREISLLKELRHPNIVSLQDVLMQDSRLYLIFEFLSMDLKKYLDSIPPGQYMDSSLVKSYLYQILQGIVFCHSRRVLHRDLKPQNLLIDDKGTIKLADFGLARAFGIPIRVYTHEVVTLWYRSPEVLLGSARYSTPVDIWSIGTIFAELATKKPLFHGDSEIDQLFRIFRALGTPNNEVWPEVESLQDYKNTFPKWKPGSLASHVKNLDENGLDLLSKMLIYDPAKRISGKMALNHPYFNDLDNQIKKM
Sequence of CDK1/CCNB1 (P14635 whole entry partner): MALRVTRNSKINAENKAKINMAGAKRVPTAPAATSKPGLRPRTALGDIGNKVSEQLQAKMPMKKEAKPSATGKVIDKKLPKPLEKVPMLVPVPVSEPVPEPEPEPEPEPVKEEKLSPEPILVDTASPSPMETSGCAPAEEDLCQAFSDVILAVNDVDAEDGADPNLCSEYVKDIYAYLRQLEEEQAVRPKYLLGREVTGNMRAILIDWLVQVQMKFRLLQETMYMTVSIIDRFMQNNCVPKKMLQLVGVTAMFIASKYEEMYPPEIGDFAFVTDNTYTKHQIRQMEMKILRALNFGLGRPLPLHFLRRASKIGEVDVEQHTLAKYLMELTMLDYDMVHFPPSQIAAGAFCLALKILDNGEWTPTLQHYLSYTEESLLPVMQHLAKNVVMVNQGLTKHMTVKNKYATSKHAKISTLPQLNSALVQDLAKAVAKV
For orientation: In TR-FRET formats the signal depends on donor and acceptor labels being close together.

For test [2], the target named is CDK6/CCND1 (Homo sapiens, UniProt Q00534). Description: CDK6 homogeneous time-resolved fluorescence (HTRF) kinase assay. The settings on record: CDK6/CCND, 1 mM ATP. In outline: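 Enzyme pre-incubated 20 min at 23 °C with compound, then reacted 60 min at 23 °C with 1 mM ATP and 50 nM ULight-4E-BP1 (Thr37/46) peptide; 1 nM enzyme, 1% DMSO. EDTA-stopped, Eu-anti-phospho antibody TR-FRET read (665 nm or 665/615 ratio); 11-point half-log titration from 10 μM gave IC50.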
Sequence of CDK6/CCND1 (Q00534 whole entry): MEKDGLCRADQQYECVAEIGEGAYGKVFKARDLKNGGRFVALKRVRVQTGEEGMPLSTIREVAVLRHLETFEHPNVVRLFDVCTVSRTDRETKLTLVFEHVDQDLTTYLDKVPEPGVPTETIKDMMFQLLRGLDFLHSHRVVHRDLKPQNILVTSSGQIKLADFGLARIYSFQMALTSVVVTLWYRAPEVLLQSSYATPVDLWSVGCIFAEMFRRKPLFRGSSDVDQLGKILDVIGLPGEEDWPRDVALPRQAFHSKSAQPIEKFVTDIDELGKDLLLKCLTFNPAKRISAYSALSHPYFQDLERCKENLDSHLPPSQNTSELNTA
Sequence of CDK6/CCND1 (P24385 whole entry partner): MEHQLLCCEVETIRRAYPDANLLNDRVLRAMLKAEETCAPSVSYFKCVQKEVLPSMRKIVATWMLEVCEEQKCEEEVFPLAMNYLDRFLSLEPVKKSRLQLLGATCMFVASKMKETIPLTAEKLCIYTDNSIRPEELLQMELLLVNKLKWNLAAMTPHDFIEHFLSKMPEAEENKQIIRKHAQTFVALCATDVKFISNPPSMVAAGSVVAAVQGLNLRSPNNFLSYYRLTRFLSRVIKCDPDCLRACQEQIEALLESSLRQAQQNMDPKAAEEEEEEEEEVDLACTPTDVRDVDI

Test [3] addresses CDK2/CCNE1 (Homo sapiens, UniProt P24941). Description: CDK2 homogeneous time-resolved fluorescence (HTRF) kinase assay. Conditions: CDK2/CCNE. In outline: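 CDK2/CCNE1 (3 nM) preincubated 20 min at 23 °C with compound, then reacted 60 min at 23 °C with 1 mM ATP and 50 nM ULight-4E-BP1 (Thr37/46) peptide. Stopped with EDTA, phospho-peptide detected by Eu-anti-phospho antibody (665 nm or 665/615 ratio). IC50 from 11-point half-log titrations typically starting at 10 μM.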

The target in test [4] is CDK4/CCND3 (Homo sapiens, UniProt P11802). Put plainly: CDK4 homogeneous time-resolved fluorescence (HTRF) kinase assay. The settings on record: CDK4/CCND. In outline:
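Steps: compound plus 1.5 nM CDK4/CCND3, 20 min, 23 °C; add 1 mM ATP and 50 nM ULight-4E-BP1 (Thr37/46) peptide, 60 min; stop with 10 mM EDTA; add 2 nM Eu anti-phospho antibody, 60 min; read 665 nm. IC50 from 11-point half-log series starting 10 μM.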

Where [5] appears, read: >250 nM, read-out: CDK6/CCND IC50, >250 nM.
Where [6] appears, read: 25-250 nM, read-out: CDK2/CCNE IC50, 25-250 nM.
[7] abbreviates: >250 nM, read-out: CDK4/CCND IC50, >250 nM.
The mark [8] stands for this setting: <25 nM, read-out: CDK2/CCNE IC50, <25 nM.
Setting [9] is: 25-250 nM, read-out: CDK6/CCND IC50, 25-250 nM.

Where two headings read alike, the source gives them in different places.

Sequence of CDK4/CCND3 (P11802 whole entry): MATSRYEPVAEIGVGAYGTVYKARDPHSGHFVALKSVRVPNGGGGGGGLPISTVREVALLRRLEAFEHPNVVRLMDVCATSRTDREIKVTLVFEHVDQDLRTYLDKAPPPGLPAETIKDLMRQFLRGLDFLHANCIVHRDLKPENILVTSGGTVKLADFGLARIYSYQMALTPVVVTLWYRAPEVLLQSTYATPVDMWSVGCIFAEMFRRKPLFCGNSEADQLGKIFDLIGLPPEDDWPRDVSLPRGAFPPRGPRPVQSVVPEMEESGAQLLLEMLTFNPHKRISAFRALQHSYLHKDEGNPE
Sequence of CDK4/CCND3 (P30281 whole entry partner): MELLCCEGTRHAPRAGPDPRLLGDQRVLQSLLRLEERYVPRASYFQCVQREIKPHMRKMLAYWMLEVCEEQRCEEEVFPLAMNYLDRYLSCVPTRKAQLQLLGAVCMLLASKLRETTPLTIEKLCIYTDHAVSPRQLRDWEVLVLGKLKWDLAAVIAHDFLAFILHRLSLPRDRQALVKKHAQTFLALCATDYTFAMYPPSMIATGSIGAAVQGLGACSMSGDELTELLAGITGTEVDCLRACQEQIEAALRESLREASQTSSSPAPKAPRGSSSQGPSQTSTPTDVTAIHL

Turning to `Cc1c(-c2nccc3cnc(Nc4ccc(S(=O)(=O)Nc5nccc(F)n5)cc4)cc23)ccc2c1cnn2CC(C)(C)O` [Ex 881, N-(4-fluoropyrimidin-2-yl)-4-((5-(1-(2-hydroxy-2-methylpropyl)-4-methyl-1H-indazol-5-yl)-2,6-naphthyridin-3-yl)amino)benzenesulfonamide], the IC50 was over 0.25 µM in test [1], over 0.25 µM in test [2] (setting [5]), 0.025 to 0.25 µM in test [3] (setting [6]) and over 0.25 µM in test [4] (setting [7]).
For the compound `COc1cncc(C#Cc2nccc3cnc(Nc4ccc(S(C)(=O)=O)cc4)cc23)c1` [Ex 882, 5-((5-methoxypyridin-3-yl)ethynyl)-N-(4-(methylsulfonyl)phenyl)-2,6-naphthyridin-3-amine], the IC50 in test [1] was over 0.25 µM; in test [2] (setting [5]), over 0.25 µM; in test [3] (setting [6]), 0.025 to 0.25 µM; in test [4] (setting [7]) it was over 0.25 µM.
On to `Cc1nc[nH]c1C#Cc1nccc2cnc(Nc3ccc(S(C)(=O)=O)cc3)cc12` [Ex 883, 5-((4-methyl-1H-imidazol-5-yl)ethynyl)-N-(4-(methylsulfonyl)phenyl)-2,6-naphthyridin-3-amine], for which the IC50 in test [1] is over 0.25 µM; in test [2] (setting [5]), over 0.25 µM; in test [3] (setting [6]), 0.025 to 0.25 µM; in test [4] (setting [7]) it was over 0.25 µM.
On to `O=c1ccc(C#Cc2nccc3cnc(Nc4cnc(O)c(N5CCNCC5)c4)cc23)n[nH]1` [Ex 886, 6-((7-((6-hydroxy-5-(piperazin-1-yl)pyridin-3-yl)amino)-2,6-naphthyridin-1-yl)ethynyl)pyridazin-3(2H)-one], for which the IC50 was over 0.25 µM in test [1], over 0.25 µM in test [2] (setting [5]), 0.025 to 0.25 µM in test [3] (setting [6]) and over 0.25 µM in test [4] (setting [7]).
For the compound `Cc1c(-c2nccc3cnc(Nc4cnc(O)c(N5CCNCC5)c4)cc23)ccc2c1cnn2CC(C)(C)O` [Ex 888, 5-((5-(1-(2-hydroxy-2-methylpropyl)-4-methyl-1H-indazol-5-yl)-2,6-naphthyridin-3-yl)amino)-3-(piperazin-1-yl)pyridin-2-ol], the IC50 was over 0.25 µM in test [1], over 0.25 µM in test [2] (setting [5]), 0.025 to 0.25 µM in test [3] (setting [6]) and over 0.25 µM in test [4] (setting [7]).
Turning to `CC#Cc1nccc2cnc(Nc3ccc(S(=O)(=O)Nc4ncc(C)cn4)cc3)cc12` [Ex 889, N-(5-methylpyrimidin-2-yl)-4-((5-(prop-1-yn-1-yl)-2,6-naphthyridin-3-yl)amino)benzenesulfonamide], the IC50 was over 0.25 µM in test [1], over 0.25 µM in test [2] (setting [5]), 0.025 to 0.25 µM in test [3] (setting [6]) and over 0.25 µM in test [4] (setting [7]).
For the compound `CC#Cc1nccc2cnc(Nc3ccc(S(=O)(=O)Nc4nc(OC)cc(OC)n4)cc3)cc12` [Ex 890, N-(4,6-dimethoxypyrimidin-2-yl)-4-((5-(prop-1-yn-1-yl)-2,6-naphthyridin-3-yl)amino)benzenesulfonamide], the IC50 in test [1] is over 0.25 µM; in test [2] (setting [5]), over 0.25 µM; in test [3] (setting [6]), 0.025 to 0.25 µM; in test [4] (setting [7]), over 0.25 µM.
With `CC#Cc1nccc2cnc(Nc3ccc(S(=O)(=O)Nc4nccc(C(F)(F)F)n4)cc3)cc12` [Ex 891, 4-((5-(prop-1-yn-1-yl)-2,6-naphthyridin-3-yl)amino)-N-(4-(trifluoromethyl)pyrimidin-2-yl)benzenesulfonamide], the IC50 in test [1] was over 0.25 µM; in test [2] (setting [5]), over 0.25 µM; in test [3] (setting [6]), 0.025 to 0.25 µM; in test [4] (setting [7]), over 0.25 µM.
In the case of `Cc1c(-c2nccc3cnc(Nc4ccc(S(=O)(=O)Nc5nccc(N6CCN(C)CC6)n5)cc4)cc23)ccc2c1cnn2CC(C)(C)O` [Ex 892, 4-((5-(1-(2-hydroxy-2-methylpropyl)-4-methyl-1H-indazol-5-yl)-2,6-naphthyridin-3-yl)amino)-N-(4-(4-methylpiperazin-1-yl)pyrimidin-2-yl)benzenesulfonamide], the IC50 in test [1] is over 0.25 µM; in test [2] (setting [5]), over 0.25 µM; in test [3] (setting [8]), under 0.025 µM; in test [4] (setting [7]), over 0.25 µM.
As for `Cc1c(-c2nccc3cnc(Nc4ccc(S(=O)(=O)Nc5nccc(N6CCOCC6)n5)cc4)cc23)ccc2c1cnn2CC(C)(C)O` [Ex 893, 4-((5-(1-(2-hydroxy-2-methylpropyl)-4-methyl-1H-indazol-5-yl)-2,6-naphthyridin-3-yl)amino)-N-(4-morpholinopyrimidin-2-yl)benzenesulfonamide], the IC50 in test [1] is over 0.25 µM; in test [2] (setting [5]), over 0.25 µM; in test [3] (setting [8]) it was under 0.025 µM; in test [4] (setting [7]) it was over 0.25 µM.
`Cc1c(-c2nccc3cnc(Nc4ccc(S(=O)(=O)Nc5ncc(C(F)(F)F)cn5)cc4)cc23)ccc2c1cnn2CC(C)(C)O` [Ex 894, 4-((5-(1-(2-hydroxy-2-methylpropyl)-4-methyl-1H-indazol-5-yl)-2,6-naphthyridin-3-yl)amino)-N-(5-(trifluoromethyl)pyrimidin-2-yl)benzenesulfonamide]: the IC50 in test [1] was over 0.25 µM; in test [2] (setting [5]), over 0.25 µM; in test [3] (setting [6]), 0.025 to 0.25 µM; in test [4] (setting [7]), over 0.25 µM.
For `Cc1c(-c2nccc3cnc(Nc4ccc(S(=O)(=O)Nc5ncc(Cl)cn5)cc4)cc23)ccc2c1cnn2CC(C)(C)O` [Ex 895, N-(5-chloropyrimidin-2-yl)-4-((5-(1-(2-hydroxy-2-methylpropyl)-4-methyl-1H-indazol-5-yl)-2,6-naphthyridin-3-yl)amino)benzenesulfonamide], the IC50 in test [1] was over 0.25 µM; in test [2] (setting [5]), over 0.25 µM; in test [3] (setting [6]), 0.025 to 0.25 µM; in test [4] (setting [7]), over 0.25 µM.
With `Cc1cnc(NS(=O)(=O)c2ccc(Nc3cc4c(-c5ccc6c(cnn6CC(C)(C)O)c5C)nccc4cn3)cc2)nc1` [Ex 896, 4-((5-(1-(2-hydroxy-2-methylpropyl)-4-methyl-1H-indazol-5-yl)-2,6-naphthyridin-3-yl)amino)-N-(5-methylpyrimidin-2-yl)benzenesulfonamide], the IC50 was over 0.25 µM in test [1]; 0.025 to 0.25 µM in test [2] (setting [9]); under 0.025 µM in test [3] (setting [8]); 0.025 to 0.25 µM in test [4] (25-250 nM, read-out: CDK4/CCND IC50, 25-250 nM).
For the compound `COc1ccnc(NS(=O)(=O)c2ccc(Nc3cc4c(-c5ccc6c(cnn6CC(C)(C)O)c5C)nccc4cn3)cc2)n1` [Ex 897, 4-((5-(1-(2-hydroxy-2-methylpropyl)-4-methyl-1H-indazol-5-yl)-2,6-naphthyridin-3-yl)amino)-N-(4-methoxypyrimidin-2-yl)benzenesulfonamide], the IC50 in test [1] is over 0.25 µM; in test [2] (setting [9]), 0.025 to 0.25 µM; in test [3] (setting [8]) it was under 0.025 µM; in test [4] (setting [7]), over 0.25 µM.
Take `COc1cc(OC)nc(NS(=O)(=O)c2ccc(Nc3cc4c(-c5ccc6c(cnn6CC(C)(C)O)c5C)nccc4cn3)cc2)n1` [Ex 898, N-(4,6-dimethoxypyrimidin-2-yl)-4-((5-(1-(2-hydroxy-2-methylpropyl)-4-methyl-1H-indazol-5-yl)-2,6-naphthyridin-3-yl)amino)benzenesulfonamide]: the IC50 in test [1] was over 0.25 µM; in test [2] (setting [5]), over 0.25 µM; in test [3] (setting [8]), under 0.025 µM; in test [4] (setting [7]), over 0.25 µM.
Turning to `Cc1cc(C#Cc2nccc3cnc(Nc4ccc(S(C)(=O)=O)cc4)cc23)sn1` [Ex 899, 5-((3-methylisothiazol-5-yl)ethynyl)-N-(4-(methylsulfonyl)phenyl)-2,6-naphthyridin-3-amine], the IC50 is over 0.25 µM in test [1], over 0.25 µM in test [2] (setting [5]), 0.025 to 0.25 µM in test [3] (setting [6]) and over 0.25 µM in test [4] (setting [7]).
For the compound `CS(=O)(=O)c1ccc(Nc2cc3c(C#Cc4ccc(C#N)s4)nccc3cn2)cc1` [Ex 900, 5-((7-((4-(methylsulfonyl)phenyl)amino)-2,6-naphthyridin-1-yl)ethynyl)thiophene-2-carbonitrile], the IC50 in test [1] was over 0.25 µM; in test [2] (setting [5]), over 0.25 µM; in test [3] (setting [6]) it was 0.025 to 0.25 µM; in test [4] (setting [7]), over 0.25 µM.
Turning to `Cc1cnc(C#Cc2nccc3cnc(Nc4ccc(S(C)(=O)=O)cc4)cc23)[nH]1` [Ex 901, 5-((5-methyl-1H-imidazol-2-yl)ethynyl)-N-(4-(methylsulfonyl)phenyl)-2,6-naphthyridin-3-amine], the IC50 in test [1] was over 0.25 µM; in test [2] (setting [5]), over 0.25 µM; in test [3] (setting [6]), 0.025 to 0.25 µM; in test [4] (setting [7]) it was over 0.25 µM.
Consider `CC#Cc1nccc2cnc(Nc3ccc(S(=O)(=O)Nc4nccc(C)n4)cc3)cc12` [Ex 905, N-(4-methylpyrimidin-2-yl)-4-((5-(prop-1-yn-1-yl)-2,6-naphthyridin-3-yl)amino)benzenesulfonamide], for which the IC50 in test [1] was over 0.25 µM; in test [2] (setting [5]), over 0.25 µM; in test [3] (setting [6]), 0.025 to 0.25 µM; in test [4] (setting [7]), over 0.25 µM.
